The results in this text go back to patent publication US11976063B2, “Pharmaceutical composition comprising berberine and ursodeoxycholic acid for the treatment of various diseases or disorders” (priority 2014, dated 2024).

For series [1], the system named is high fat diet (HFD) induced non-alcoholic fatty liver mice. Briefly: High fat diet induced non-alcoholic fatty liver mice model (Example 5). Type of series: in vivo, NIH male mice. From the text: This example describes an in vivo efficacy study of BUDCA disclosed in the present invention using a high fat diet (HFD) induced non-alcoholic fatty liver mice model.
91 NIH male mice of 4 weeks old were obtained from Vital River Laboratories (Beijing, China). After acclimatization for one week, 13 mice were selected as control group (Group 1, G1) with normal chow diet fed, and the other 78 mice were fed with HFD (in which 40% of calories is from fat) for 4 weeks to establish an animal model resembling the pathophysiology of non-alcoholic fatty liver in human.
Following 4 weeks of high fat dietary intervention, the 78 mice were divided into 6 groups according to body weight (n=13 per group): • Group 2, G2: Vehicle control (0.5% CMC-Na solution) • Group 3, G3: Low-dose group of BUDCA (30 mg/kg) • Group 4, G4: Middle-dose group of BUDCA (100 mg/kg) • Group 5, G5: High-dose group of BUDCA (300 mg/kg) • Group 6, G6: BBR control group (Berberine HCl, 150 mg/Kg) • Group 7, G7: UDCA control group (Ursodeoxycholic acid, 150 mg/Kg)
The mice from G2 to G7 were administered with the corresponding testing articles indicated above once daily by intragastric gavage. HFD continued throughout the duration of the treatment of 6 weeks. The normal mice (G1) were treated with vehicle (0.5% CMC-Na solution) via intragastric gavage. At the end of experiment, the following biochemical parameters were measured and tests were carried out: • Body weight, the weight ratio of liver • Total cholesterol (TC) and triglyceride (TG) levels, high density lipoprotein cholesterol (HDL-C) and low density lipoprotein cholesterol (LDL-C) levels • Alanine aminotransferase (ALT) and aspartate aminotransferase (AST) levels • Superoxide dismutase (SOD) activity and malondialdehyde (MDA) level • Oral glucose tolerance test (OGTT) • Histopathological examination of liver ([…] staining)
After 6 weeks treatment, blood was collected via retro-orbital bleeding of each 12-hour fasted animal. Liver was harvested by surgery for histopathology analysis after weight measurement. Then the serum was isolated for the determination of TC, TG, HDL-C, LDL-C, ALT, AST, SOD and MDA.
One week before sacrifice (Week 5 of treatment), an oral glucose tolerance test (OGTT) was performed in 12-hour fasted animals. For the OGTT, all mice received an oral glucose challenge at 2.0 g/Kg and the blood glucose concentrations were determined by glucometer (ACCU-CHEK Active, Roche) at 0, 30, 60, 90 and 120 min.
The liver tissue was histopathologically evaluated by […] staining after frozen section.

Series [2] has as its system high fat diet (HFD) and streptozotocin (STZ) induced diabetic mice. Format: in vivo. As to the method:
This example describes an in vivo efficacy study of the combinations disclosed in the present invention using a high fat diet (HFD) and streptozotocin (STZ) induced diabetic mice model.
Sixty NIH male mice of 4 weeks old were acquired from Guangzhou Institute of Laboratory Animal. After acclimatization for one week, five mice were selected as normal control group (Group 1), the rest fifty-five mice were administered single dose of STZ at the dose of 40 mg/kg, and fed with HFD (in which 40% of calories is from fat) for 7 days to establish a diabetic animal model resembling the pathophysiology of type 2 diabetes in human. Mice in the normal control group were not administered STZ, and fed with normal chow diet.
The mice from Group 2 to 5 were treated with the corresponding testing articles indicated above once daily by intragastric gavage. HFD continued throughout the duration of the treatment of 28 days. The normal mice (Group 1) were treated with normal saline by intragastric gavage. Fasting blood glucose, total cholesterol (TC) and triglyceride (TG) levels, food intake, water intake and body weight were measured throughout the study.
On day 28 of the treatment, an oral glucose tolerance test (OGTT) was performed in 12-hour fasted animals. For the OGTT, after the measurement of the basal glucose concentration (T=−30 min), mice received an oral glucose challenge at 2.5 g/kg and glucose values were determined by glucometer (ACCU-CHEK Active, Roche) at 0, 30, 60 and 120 min.
After OGTT, blood samples were collected for the measurement of blood glucose, TC and TG. The mice were sacrificed, and the pancreas, liver, kidney and fat were harvested for histopathology analysis.

Series [3] relates to high fat diet (HFD) induced obesity mice. Briefly: High fat diet induced obesity mice model (Example 2). Format: in vivo, NIH male mice. The note with it: used individually at 50 mg/Kg, once daily i.g., interim results at 15 days. From the text:
This example describes an in vivo efficacy study of the combinations disclosed in the present invention using a high fat diet (HFD) induced obesity mice model.
Fifty NIH male mice of 4 weeks old were acquired (Guangzhou Institute of Laboratory Animal). After acclimatization for one week, eight mice were selected as normal control; the rest forty-two mice were fed with HFD (in which 40% of calories is from fat) for 14 days to establish a HFD induced obesity mice model resembling the pathophysiology of metabolic syndrome in human. Normal control mice were fed with normal chow diet. […]
The mice from Group 1 to 4 were treated with the corresponding testing articles indicated above once daily by intragastric gavage. […] Blood glucose (fasting and non-fasting), total cholesterol (TC) and triglyceride (TG) levels, food intake, water intake and body weight were measured throughout the study.
On day 28 of the treatment, an oral glucose tolerance test (OGTT) was performed in 12-hour fasted animals. For the OGTT, after the measurement of the basal glucose concentration (T=−30 min), mice received an oral glucose challenge at 2.5 g/Kg and glucose values were determined by glucometer (ACCU-CHEK Active, Roche) at 0, 30, 60 and 120 min. […]

Where [4] appears, read: 150 mg/Kg (G6 Berberine HCl; G7 UDCA), i.g. once daily, 6 weeks, HFD, mean ± S.E.M.
Where [5] appears, read: serum, 150 mg/Kg (G6 Berberine HCl; G7 UDCA), i.g. once daily, 6 weeks, HFD, mean ± S.E.M.
[6] abbreviates: Day 0 (before treatment), same doses.
Where [7] appears, read: Day 3, same doses, once daily i.g.
[8] abbreviates: Day 27, same doses, once daily i.g.
Setting [9] is: Day 28, same doses, once daily i.g.

Structures can show the parent of a compound that is named as a salt.

In the case of `COc1ccc2cc3[n+](cc2c1OC)CCc1cc2c(cc1-3)OCO2` [Berberine HCl, reference compound], in series [1] (setting [4]), the Body weight is 42.4 ± 1.37 g and the “Weight ratio of liver” value is on record as 4.26 ± 0.12%. In series [1] (setting [5]), the ALT is on record as 37.1 ± 4.08 U/L, the AST worked out at 198.7 ± 18.93 U/L, the HDL-C worked out at 2.47 ± 0.20 mmol/L and the LDL-C stood at 1.42 ± 0.21 mmol/L. In addition, in series [1] (setting [5]), the MDA was 9.3 ± 2.14 µM, the SOD was determined as 77.03 ± 8.98 U/mL, the TC is recorded as 5.97 ± 0.47 mmol/L and the TG was determined as 1.00 ± 0.08 mmol/L.
Consider `CN(C)C(=N)NC(=N)N` [Metformin, N,N-Dimethylimidodicarbonimidic diamide], for which the “Effect on symptoms of diabetes (overall efficacy)” value in series [2] (28 days treatment, HFD/STZ mice) is given as “did not demonstrate a clear efficacy”. The “Fasting blood glucose, Day 0” value in series [2] (Day 0 (before treatment), metformin 300 mg/kg, berberine 150 + UA 150 mg/kg, berberine 150 + EPA 75 + DHA 75 mg/kg) stood at 24.08 ± 5.44 mmol/L. Moreover, the “Weight, Day 0” value in series [2] (Day 0 (before treatment), metformin 300 mg/kg, berberine 150 + UA 150 mg/kg, berberine 150 + EPA 75 + DHA 75 mg/kg, once daily i.g.) was found to be 26.30 ± 2.54 g. Also, in series [2] (setting [6]), the “Total Cholesterol, Day 0” value turned out to be 297.96 ± 67.09 mg/dL and the “Triglyceride, Day 0” value was determined as 2.40 ± 1.03 mmol/L. In series [2] (setting [7]), the “Food Intake, Day 3” value stood at 8.66 g and the “Water intake, Day 3” value is on record as 19.40 mL. Also, the “Water intake, Day 6” value in series [2] (Day 6, same doses, once daily i.g.) was determined as 23.60 mL. Besides, in series [2] (Day 27, metformin 300 mg/kg, berberine 150 + UA 150 mg/kg, berberine 150 + EPA 75 + DHA 75 mg/kg, once daily i.g.), the “Weight, Day 27” value turned out to be 36.99 ± 3.90 g. Besides, in series [2] (setting [8]), the “Food Intake, Day 27” value is recorded as 9.37 g and the “Water intake, Day 27” value was determined as 34.40 mL. Besides, in series [2] (setting [9]), the “Fasting blood glucose, Day 28” value was determined as 21.66 ± 4.71 mmol/L; the “Total Cholesterol, Day 28” value stood at 436.99 ± 159.73 mg/dL; the “Triglyceride, Day 28” value worked out at 6.06 ± 6.71 mmol/L.
Regarding `C[C@H](CCC(=O)O)[C@H]1CC[C@H]2[C@@H]3[C@@H](O)C[C@@H]4C[C@H](O)CC[C@]4(C)[C@H]3CC[C@]12C` [UDCA, 3α,7β-dihydroxy-5β-cholan-24-oic acid, reference compound], in series [1] (setting [4]), the Body weight amounted to 42.0 ± 1.16 g and the “Weight ratio of liver” value was 4.77 ± 0.26%. In addition, in series [1] (setting [5]), the ALT was 30.6 ± 5.73 U/L, the AST is given as 162.86 ± 29.42 U/L, the HDL-C is on record as 2.13 ± 0.33 mmol/L and the LDL-C came out at 1.37 ± 0.26 mmol/L. In series [1] (setting [5]), the SOD is 44.75 ± 11.99 U/mL, the TC is on record as 4.77 ± 0.70 mmol/L and the TG is 1.20 ± 0.22 mmol/L.
Consider `COc1ccc2cc3[n+](cc2c1OC)CCc1cc2c(cc1-3)OCO2` [berberine, 5,6-dihydro-9,10-dimethoxybenzo[g]-1,3-benzodioxolo[5,6-a]quinolizinium], for which, in series [3], the “Pharmacological effects comparing to the vehicle control group” value was “neither berberine (Group 2), nor hydroxycitric acid (Group 3) demonstrated any pharmacological effects”. For the same compound, the “Animals showing gastrointestinal side effects at the time of sacrifice” value in series [1] (berberine treatment group (150 mg/Kg), 6 weeks i.g.) is reported as 50 % of animals.
For `O=C(O)CC(O)(C(=O)O)C(O)C(=O)O` (stereo not drawn) [hydroxycitric acid, 1,2-dihydroxypropane-1,2,3-tricarboxylic acid], in series [3], the “Pharmacological effects comparing to the vehicle control group” value is given as “neither berberine (Group 2), nor hydroxycitric acid (Group 3) demonstrated any pharmacological effects”.
